Measurements published in patent US4786755A, “Diphenic acid monoamides” (Warner-Lambert Company, priority 1986, dated 1988).
Read-outs that look alike come from different tables or passages of the source.

Test system: Human Basophils
Test: Histamine Release from Human Basophils (HHB)
Assay type: cell-based
Settings: for inhibition at 33 µM: Homo sapiens, 33 μM cpd.
Description: Histamine Release from Human Basophils (HHB) Procedure for Quantitating Active Histamine Release, and its Inhibition by Drugs, from Basophils of Human Blood Using an Automated Fluorometric Histamine Assay
Mediator (histamine) release from human blood basophils is an assay which provides a model for evaluating potential antiallergy (mediator release inhibitors) compounds.
Blood from allergic donors is obtained from volunteers through the Community Research Clinic. The leukocytes are removed after Hespan® sedimentation, washed and concentrated using calcium and magnesium free Hepes buffered saline and resuspended in Hepes Hepes buffered saline with 1 mM calcium and magnesium added back. The cells are incubated briefly at room temperature with either buffer alone (for measuring spontaneous release and challenge agent stimulated release) 6% perchloric acid (for measuring total available histamine in the cells) or drug at various concentrations. The cells are then either treated with buffer alone (to measure control spontaneous and drug effect on spontaneous release) or appropriate challenge agent (e.g., anti-IgE, antigen) mixed and incubated for 45 minutes at 37° C. in a shaking water bath. The reaction is stopped by centrifugation and the supernate is poured into autoanalyzer sample cups and samples assayed for assayed for histamine content using an automated fluorometric assay. By comparing the histamine release of drug-treated cells and the challenge agent controls, drug inhibition of mediator (histamine) release can be evaluated.
Histamine release is induced by (1) an aqueous antigen extract (short rageweed or house dust), or (2) anti-IgE antisera. Whole human blood is obtained from volunteers through the Community Research Clinic (CRC-92). Volunteers are chosen on the basis of adequate histamine release induced by antigen, or antiIgE antisera challenge. Leukocytes are incubated in vitro with the challenge agents at several concentrations. Dose-response curves for each volunteer, using each challenge agent, are generated. Test compounds are evaluated for inhibition of a near maximal response to one or more challenge agents. By including appropriate controls, it is possble to measure the effect of the test compound, at various concentrations, in several ways: (1) the effect of the compound on histamine release for each challenge agent; (2) the effect of the test compound on spontaneous release of histamine in the absence of the challenge agent (buffer alone); and (3) the effect of the test compound on the histamine assay.
Histamine is assayed using an automated continuous flow system which quantitates samples of 0.4 ml or more in volume, and concentrations of approximately 0.5 ng/ml or more. The rate of analysis is 30 samples/hour.
Methods of preparing leukocytes for this assay are described by Theuson, et al, J. of Immunology, Vol. 123, p. 426 (1979).
Samples are run in triplicate, using either 1.5 ml polypropylene capped reaction tubes, or 5.0 ml plastic uncapped tubes. Test compounds and challenge agents are prepared in HACM buffer, as described above. Fixed volume pipettes are used.
Test compound or vehicle control is added to three reaction tubes at 1.5×the final desired concentration (i.e., 400 μl of test compound per 600 μl total reaction volume). One hundred μl of cells is added to each tube and the mixture is incubated for eight minutes at room temperature, and two minutes at 37° C. before antigen or other stimulus challenge. One hundred μl of the challenge agent at 6× the final concentration is then added, and the final mixture is incubated at 37° C. for 45 minutes in a shaking water bath. This ensures that the cell preparation is constantly in suspension. The reaction is stopped by centrifugation at 2000 RPM for three minutes at 4° C. The supernate (.perspectiveto.500 μl) is poured into 2.0 ml autoanalyzer beakers and assayed for histamine by the fluorometric method. […]

[1] = Tripeptide challenge, read-out: HHB (Tripeptide), percent inhibition of histamine release
[2] = antigen challenge, read-out: HHB (antigen), percent inhibition of histamine release

Row | Compound | inhibition at 33 µM [1] [%] | inhibition at 33 µM [2] [%] | HHB (antigen), percent inhibition of histamine release @ 10 (@ 10, antigen challenge)
1 | O=C(O)c1ccccc1-c1ccccc1C(=O)Nc1ccc(CCCc2ccc(Cl)c(Cl)c2)cc1 [Example 1, [1,1'-Biphenyl]-2-carboxylic acid, 2'-[[[4-[3-(3,4-dichlorophenyl)propyl]phenyl]amino]carbonyl]-] | 72 | 72 | –
2 | O=C(O)c1ccccc1-c1ccccc1C(=O)Nc1ccc(OCCCc2ccccc2)cc1 [Example 2] | 96 | 12 | –
3 | O=C(O)c1ccccc1-c1ccccc1C(=O)Nc1ccc(CCc2ccc(Cl)c(Cl)c2)cc1 [Example 3, [1,1'-Biphenyl]-2-carboxylic acid, 2'-[[[4-[2-(3,4-dichlorophenyl)ethyl]phenyl]amino]carbonyl]-] | 93 | 94 | –
4 | O=C(O)c1ccccc1-c1ccccc1C(=O)Nc1cccc(CCc2ccc(Cl)c(Cl)c2)c1 [Example 4, [1,1'-Biphenyl]-2-carboxylic acid, 2'-[[[3-[2-(3,4-dichlorophenyl)ethyl]phenyl]amino]carbonyl]-] | 97 | 101 | –
5 | CN(C(=O)c1ccccc1-c1ccccc1C(=O)O)c1ccc(CCc2ccc(Cl)c(Cl)c2)cc1 [Example 5, [1,1'-Biphenyl]-2-carboxylic acid, 2'-[[[4-[2-(3,4-dichlorophenyl)ethyl]phenyl]methylamino]carbonyl]-] | 83 | 72 | –
6 | COc1ccc(CCc2ccc(NC(=O)c3ccccc3-c3ccccc3C(=O)O)cc2)cc1OC [Example 7, [1,1'-Biphenyl]-2-carboxylic acid, 2'-[[[4-[2-(3,4-dimethoxyphenyl)ethyl]phenyl]amino]carbonyl]-] | 93 | -5 | –
7 | CN(C(=O)c1ccccc1-c1ccccc1C(=O)O)c1ccc(CCc2ccc(Cl)cc2)cc1 [Example 8] | 111 | 67 | –
8 | O=C(O)c1ccccc1-c1ccccc1C(=O)Nc1ccc(Cc2ccc(Cl)c(Cl)c2)cc1 [Example 9] | 100 | 87 | –
9 | O=C(O)c1ccccc1-c1ccccc1C(=O)Nc1ccc(CCCCc2ccc(Cl)c(Cl)c2)cc1 [Example 15, [1,1'-Biphenyl]-2-carboxylic acid, 2'-[[[4-[4-(3,4-dichlorophenyl)butyl]phenyl]amino]carbonyl]-] | -17 | – | 39
10 | O=C(O)c1ccccc1-c1ccccc1C(=O)Nc1ccc(CCCc2ccccc2)cc1 [Example 16, [1,1'-Biphenyl]-2-carboxylic acid, 2'-[[[4-(3-phenylpropyl]phenyl]amino]carbonyl]-] | 84 | – | –
11 | O=C(O)c1ccccc1-c1ccccc1C(=O)Nc1ccc(CCCCc2ccccc2)cc1 [Example 19, [1,1'-Biphenyl]-2-carboxylic acid, 2'-[[[4-(4-phenylbutyl)phenyl]amino]carbonyl]-] | 90 | 59 | –
12 | O=C(O)c1ccccc1-c1ccccc1C(=O)Nc1ccc(CCCCCc2ccccc2)cc1 [Example 21, [1,1'-Biphenyl]-2-carboxylic acid, 2'-[[[4-(5-phenylpentyl)phenyl]amino]carbonyl]-] | 93 | 91 | –
